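Assay format: 96-well plates, 48-hour exposure. GI50 marks 50% less growth.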 The source made the active and inactive calls. Rule as the data show it: active = GI50 up to about 1.1 µM and inactive = higher.
Key:
Assay in all cases: NCI anticancer screen, dose series, 48 h
SK-OV-3 = test system: SK-OV-3
Malme-3M = test system: Malme-3M
SF-539 = test system: SF-539
OVCAR-5 = test system: OVCAR-5
NCI-H460 = test system: NCI-H460
UACC-62 = test system: UACC-62
HCC 2998 = test system: HCC 2998
HOP-92 = test system: HOP-92
NCI-H522 = test system: NCI-H522
RXF 393 = test system: RXF 393
ACHN = test system: ACHN
M19-MEL = test system: M19-MEL
UACC-257 = test system: UACC-257
NCI-H23 = test system: NCI-H23
MCF7 = test system: MCF7
HCT-116 = test system: HCT-116
SR = test system: SR
Hs-578T = test system: Hs-578T
HT-29 = test system: HT-29
DU-145 = test system: DU-145

Structure (SMILES)	GI50 (SK-OV-3)	GI50 (Malme-3M)	GI50 (SF-539)	GI50 (OVCAR-5)	GI50 (NCI-H460)	GI50 (UACC-62)	GI50 (HCC 2998)	GI50 (HOP-92)	GI50 (NCI-H522)	GI50 (RXF 393)	GI50 (ACHN)	GI50 (M19-MEL)	GI50 (UACC-257)	GI50 (NCI-H23)	GI50 (MCF7)	GI50 (HCT-116)	GI50 (SR)	GI50 (Hs-578T)	GI50 (HT-29)	GI50 (DU-145)
CCCCN(CCCC)CC(C(=O)Nc1ccc([N+](=O)[O-])cc1[N+](=O)[O-])/C(C)=N\NC(=O)c1ccncc1 (centres undefined)	> 100 µM (inactive)	> 100 µM (inactive)	> 100 µM (inactive)	> 100 µM (inactive)	> 100 µM (inactive)	> 100 µM (inactive)	> 100 µM (inactive)	90.6 µM (inactive)	> 100 µM (inactive)	> 100 µM (inactive)	> 100 µM (inactive)	> 100 µM (inactive)	> 100 µM (inactive)	> 100 µM (inactive)						
O=C1CC2[C@@H](N3CCCC3)CCC(N1Cc1ccccc1)C2(O)O (some centres undefined)	> 100 µM (inactive)	> 100 µM (inactive)	> 100 µM (inactive)	> 100 µM (inactive)	> 100 µM (inactive)	> 100 µM (inactive)	> 100 µM (inactive)	> 100 µM (inactive)	> 100 µM (inactive)	> 100 µM (inactive)	> 100 µM (inactive)		> 100 µM (inactive)	> 100 µM (inactive)	> 100 µM (inactive)	> 100 µM (inactive)	> 100 µM (inactive)	> 100 µM (inactive)	> 100 µM (inactive)	> 100 µM (inactive)
COc1ccc(C(Nc2ncccn2)c2cc3c(cc2O)OCO3)cc1 (centres undefined)	22.1 µM (inactive)	26.1 µM (inactive)	15.2 µM (inactive)	31.8 µM (inactive)	20.1 µM (inactive)	32.4 µM (inactive)	21.7 µM (inactive)	37.2 µM (inactive)	16.7 µM (inactive)	17.9 µM (inactive)	41.8 µM (inactive)		18.9 µM (inactive)	12.7 µM (inactive)	23.5 µM (inactive)	29.4 µM (inactive)	7.14 µM (inactive)	23.4 µM (inactive)	24.8 µM (inactive)	20.5 µM (inactive)
NC(Cc1c[nH]c(I)n1)C(=O)O (centres undefined)	> 100 µM (inactive)	17.7 µM (inactive)	37.4 µM (inactive)	> 100 µM (inactive)	> 100 µM (inactive)	> 100 µM (inactive)	34.9 µM (inactive)	25.6 µM (inactive)	24.3 µM (inactive)	45.2 µM (inactive)	> 100 µM (inactive)		41.1 µM (inactive)	81.3 µM (inactive)	41.4 µM (inactive)	81.5 µM (inactive)	34.4 µM (inactive)	23.8 µM (inactive)	> 100 µM (inactive)	> 100 µM (inactive)
CCN(CCCl)c1cc(CN(C)C)cc(NC(=O)c2ccc(C(=O)Nc3cccc(CN(C)C)c3)cc2)c1	1.91 µM (inactive)	1.31 µM (inactive)	0.457 µM (active)	10.6 µM (inactive)	0.716 µM (active)	1.27 µM (inactive)	1.26 µM (inactive)	0.512 µM (active)	0.0161 µM (active)	0.247 µM (active)	2.94 µM (inactive)		1.83 µM (inactive)	1.54 µM (inactive)	0.11 µM (active)	0.51 µM (active)	0.275 µM (active)	0.23 µM (active)	1.35 µM (inactive)	3.74 µM (inactive)
COc1cc2c(cc1OCCCCOc1cc(-c3ccc(F)cc3)nc(C)n1)N=C[C@@H]1CCCN1C2=O	3.19 µM (inactive)	0.82 µM (active)	0.927 µM (active)	0.272 µM (active)	0.413 µM (active)	0.378 µM (active)	0.029 µM (active)	0.443 µM (active)	0.212 µM (active)	0.429 µM (active)	0.189 µM (active)		0.692 µM (active)	0.468 µM (active)	0.502 µM (active)	0.838 µM (active)	0.16 µM (active)	1.05 µM (active)	0.442 µM (active)	0.225 µM (active)
O=C(/C=C(\Nc1ccccc1O)c1ccc(Br)cc1)C(Cl)(Cl)Cl	1.07 µM (active)	15.2 µM (inactive)	12.7 µM (inactive)	12.1 µM (inactive)	3.21 µM (inactive)	13.3 µM (inactive)	2.1 µM (inactive)	2.6 µM (inactive)	14.9 µM (inactive)	5.51 µM (inactive)	2.55 µM (inactive)		7.26 µM (inactive)	12.6 µM (inactive)	5.21 µM (inactive)	10.5 µM (inactive)	13.7 µM (inactive)	3.1 µM (inactive)	6.43 µM (inactive)	3.03 µM (inactive)
COc1ccc2c(c1)C(=O)C(=O)c1cc(O)c(OC)c(OC)c1-2	1.5 µM (inactive)	0.832 µM (active)	1.85 µM (inactive)	1.12 µM (inactive)	3.02 µM (inactive)	0.849 µM (active)	4.55 µM (inactive)	0.875 µM (active)	0.927 µM (active)	0.9 µM (active)	0.893 µM (active)		0.91 µM (active)	0.889 µM (active)	0.902 µM (active)	0.813 µM (active)	0.818 µM (active)	1.07 µM (active)	1.32 µM (inactive)	0.918 µM (active)
COc1ccc(CNc2nc3c(NC(C)=O)cc(C(F)(F)F)cc3nc2-c2ccccc2)cc1OC	40.7 µM (inactive)	95.3 µM (inactive)	25.2 µM (inactive)	> 100 µM (inactive)	> 100 µM (inactive)	45.3 µM (inactive)	> 100 µM (inactive)		2.69 µM (inactive)			> 100 µM (inactive)	> 100 µM (inactive)	59 µM (inactive)		48.4 µM (inactive)			> 100 µM (inactive)	
Cc1cccc(C(C)(C)C)c1NC(=O)C(C#N)C1=C(Cl)C(=O)c2ccccc2C1=O (centres undefined)	15.8 µM (inactive)	17.2 µM (inactive)	18.1 µM (inactive)	17.9 µM (inactive)	19.2 µM (inactive)	18.2 µM (inactive)	15.7 µM (inactive)	3.93 µM (inactive)	13.8 µM (inactive)	16.9 µM (inactive)	14.5 µM (inactive)		15.6 µM (inactive)	15.8 µM (inactive)	15.8 µM (inactive)	14.1 µM (inactive)	3.38 µM (inactive)	21.1 µM (inactive)	20.8 µM (inactive)	22 µM (inactive)
Cc1ccc(/C=C/C(=O)c2sc(C(N)=S)nc2C)cc1	> 100 µM (inactive)	> 100 µM (inactive)	> 100 µM (inactive)	> 100 µM (inactive)	> 100 µM (inactive)	> 100 µM (inactive)	> 100 µM (inactive)	> 100 µM (inactive)	> 100 µM (inactive)	> 100 µM (inactive)	> 100 µM (inactive)	> 100 µM (inactive)	> 100 µM (inactive)	> 100 µM (inactive)					> 100 µM (inactive)	
CC(C)(C)C(C#N)(C#N)c1ccc(C(C#N)(C#N)C(C)(C)C)nn1	41.3 µM (inactive)	> 100 µM (inactive)	> 100 µM (inactive)	> 100 µM (inactive)	> 100 µM (inactive)	> 100 µM (inactive)	> 100 µM (inactive)	72.4 µM (inactive)	> 100 µM (inactive)	43.3 µM (inactive)	82 µM (inactive)	> 100 µM (inactive)	> 100 µM (inactive)	> 100 µM (inactive)					> 100 µM (inactive)	

From ChEMBL document CHEMBL1201862, “PubChem BioAssay data set” (2004)
